Test results reported in patent US4358602A, “Ebelactones and production thereof” (Zaidan Hojin Biseibutsu Kagaku Kenkyu Kao, priority 1980, dated 1982).
In brackets after ≈: the same amount, converted by molar mass.

Key:
[1] = target: esterase preparation obtained from pig liver; assay: Anti-esterase activity assay (modified Huggins and Lapides method); format: biochemical; settings: substrate p-nitrophenyl acetate, pH 7.0, room temperature, 20 minutes
Protocol: Firstly, assay of ebelactone for its anti-esterase activity can be made by determining the potency to inhibit esterase according to a modification of the method of C. […] Thus, a commercially available esterase preparation obtained from pig liver (a product of Sigma Co., U.S.A.) is diluted with water to a 1000 folds volume, and the resulting esterase solution (0.025 ml) is admixed with 1 ml of 0.1 M phosphate buffered solution (pH 7.0) containing 0.06% "Triton X-100" (a trade name of an emulsifier consisting of a polyethyleneglycol alkylphenylether, a product of Rohm & Haas Co., U.S.A.) and 0.95 ml of water containing an ebelactone sample to be assayed, and the resulting mixed solution (1.975 ml) is admixed with 0.025 ml of a solution of 40 mM p-nitrophenyl acetate (the substrate) in methanol to start the reaction of p-nitrophenyl acetate with the esterase. After the enzymatic reaction is effected at room temperature for 20 minutes, absorbance (a) at 400 nm of the resulting reaction solution is measured. On the other hand, absorbance (b) at 400 nm of a control reaction solution containing no ebelactone is measured in the same way as above. Percent of inhibition to esterase is calculated according to the following equation:
Inhibition (%)=(b-a)/b×100

[2] = target: T1, formylmethionine aminopeptidase prepared from rat liver (Rattus norvegicus, UniProt P13676); assay: Anti-formylmethionine aminopeptidase activity assay; format: biochemical; settings: rat liver enzyme, substrate N-formylmethionine β-naphthylamide, pH 7.8, 37° C., 25 minutes; read-out: ID50, dose giving 50% inhibition to formylmethionine aminopeptidase (converted)
T1 construct: Formylmethionineaminopeptidase employed is that prepared from rat liver; from tissue; host or cells: rat liver
T1 sequence (P13676 1-732): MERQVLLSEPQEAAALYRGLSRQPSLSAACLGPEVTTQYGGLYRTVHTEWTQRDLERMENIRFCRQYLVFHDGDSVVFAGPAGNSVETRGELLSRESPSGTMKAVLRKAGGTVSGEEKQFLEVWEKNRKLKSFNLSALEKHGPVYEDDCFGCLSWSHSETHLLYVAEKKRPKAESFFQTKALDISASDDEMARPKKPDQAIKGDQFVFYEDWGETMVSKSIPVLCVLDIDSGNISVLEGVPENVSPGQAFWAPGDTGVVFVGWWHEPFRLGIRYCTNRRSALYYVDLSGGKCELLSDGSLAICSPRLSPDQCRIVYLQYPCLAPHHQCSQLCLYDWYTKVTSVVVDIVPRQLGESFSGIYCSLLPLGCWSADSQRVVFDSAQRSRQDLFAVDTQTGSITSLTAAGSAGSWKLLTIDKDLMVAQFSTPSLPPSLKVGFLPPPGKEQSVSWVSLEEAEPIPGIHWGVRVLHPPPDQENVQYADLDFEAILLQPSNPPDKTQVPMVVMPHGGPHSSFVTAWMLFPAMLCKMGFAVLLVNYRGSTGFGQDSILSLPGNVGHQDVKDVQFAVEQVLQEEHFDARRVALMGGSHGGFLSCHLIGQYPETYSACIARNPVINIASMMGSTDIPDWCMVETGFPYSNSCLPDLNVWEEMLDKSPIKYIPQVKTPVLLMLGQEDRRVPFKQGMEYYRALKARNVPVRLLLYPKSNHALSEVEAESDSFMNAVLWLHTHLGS
Protocol: Further, assay of ebelactone for its anti-formylmethionineaminopeptidase can be made according to the following method. Thus, as the substrate solution is employed a solution of N-formylmethionine β-naphthylamide(as the substrate) in methanol containing 5% (w/v) of "Tween" 20 (a trade name of a non-ionic surface-active agent, a product of Atlas Powder Co., U.S.A.). Formylmethionineaminopeptidase employed is that prepared from rat liver. The substrate solution (0.005 ml), 0.5 ml of 0.1 M Tris-hydrochloric acid buffered solution (pH 7.8) and 0.495 ml of water containing an ebelactone sample to be assayed are mixed together to a total volume of […]. The reaction solution so obtained is further admixed with 0.05 ml of the enzyme solution, followed by effecting the enzymatic reaction at 37° C. for 25 minutes. […] After allowing to stand at ambient temperature for 15 minutes, absorbance (a) at 525 nm of the reaction solution is measured. On the other hand, adsorbance (b) at 525 nm of a control reaction solution obtained from the blank test is measured. Percent of inhibition to the formylmethionine aminopeptidase is calculated in a similar way to the above-mentioned method for determination of the potency for inhibition to esterase.

[3] = tested on: CDF1 mice immunized with sheep red blood cells (SRBC); assay: Delayed Type Hypersensitivity (D.T.H.) response to SRBC in mice (cell-mediated immunity); format: in vivo; settings: 24 hours after eliciting injection
[4] = tested on: Wister rats, carragheenin-induced footpad swelling; assay: Suppression of rat footpad swelling caused by carragheenin; format: in vivo
Protocol: Tests were made to estimate the suppressive effect of ebelactone and esterastin (U.S. Pat. Nos. 4,189,438 and 4,242,453) on the swelling of rat footpad caused by injection of carragheenin when the test compounds were administered orally and intraperitoneally to the test animal, Wister rats (male, body weight:140 to 150 g). The test compound was dissolved in about 0.5 ml of ethanol with addition of one drop of a non-ionic surface-active agent "Tween" 80, and the test compound solution in ethanol was diluted with an aqueous gum arabi to prepare an aqueous suspension containing the test dose of ebelactone or esterastin. The test sample suspension so prepared was then administered orally or intraperitoneally to the rats. One hour later, 1% aqueous carragheenin was injected subcutaneously to the footpad to bring about inflammation. After the injection of carragheenin, the volume of the footpad was measured twice, namely at the end of 3 hours and at the end of 5 hours from the carragheenin injection. For control test, the ebelactone or esterastin was omitted in the above test. Degree (%) of suppression of swelling was calculated from the measured volumes of the inflammated footpad.

[5] = intraperitoneal, 30 mg/kg, 3 Hours after carragheenin
[6] = intraperitoneal, 30 mg/kg, 5 Hours after carragheenin
[7] = intraperitoneal, all dosages and all times, except 5 hours with 5 mg/kg and 3 hours with 10 mg/kg of ebelactone B
[8] = oral, 50 mg/kg, 3 Hours after carragheenin
[9] = oral, 50 mg/kg, 5 Hours after carragheenin

| Compound | ID50, dose giving 50% inhibition to esterase [1] [µg/mL] | IC50 [2] [nM] | Foodpad thickness ([3]; 0.5 mg/kg oral, control 8.1) [× 0.1 mm] | Degree (%) of suppression of inflammation [4, 5] [%] | Degree (%) of suppression of inflammation [4, 6] [%] | reduction in the degree of swelling as compared to the control test group [4, 7] | Degree (%) of suppression of swelling [4, 8] [%] | Degree (%) of suppression of swelling [4, 9] [%] | further results |
| --- | --- | --- | --- | --- | --- | --- | --- | --- | --- |
| CCC(C)C(O)C(C)C(=O)C(C)C=C(C)CC(C)C1OC(=O)C1C (stereo not drawn) [Ebelactone A, ebelactone A] | 0.056 (≈ 0.165 µM) | 236 | 12.2 | 45.9 | 18.5 | significant reduction in the degree of swelling | – | – | – |
| CCC(C)C(O)C(C)C(=O)C(C)C=C(C)CC(C)C1OC(=O)C1CC (stereo not drawn) [Ebelactone B, ebelactone B] | 0.00035 (≈ 0.000993 µM) | 56.7 | 14.1 | 50.6 | 20.9 | significant reduction in the degree of swelling | 11.6 | 7.8 | Foodpad thickness ([3]; 0.781 mg/kg intraperitoneal at immunization, control 7.4): 14.2 × 0.1 mm; Foodpad thickness ([3]; 3.125 mg/kg intraperitoneal at immunization, control 7.4): 13.6 × 0.1 mm; Foodpad thickness ([3]; 12.5 mg/kg intraperitoneal at immunization, control 7.4): 13.3 × 0.1 mm; Foodpad thickness ([3]; 50 mg/kg intraperitoneal at immunization, control 7.4): 12.2 × 0.1 mm; Degree (%) of suppression of inflammation ([4]; intraperitoneal, 5 mg/kg, 3 Hours after carragheenin): 17.1%; Degree (%) of suppression of inflammation ([4]; intraperitoneal, 5 mg/kg, 5 Hours after carragheenin): 8.8%; Degree (%) of suppression of inflammation ([4]; intraperitoneal, 10 mg/kg, 3 Hours after carragheenin): 9.1%; Degree (%) of suppression of inflammation ([4]; intraperitoneal, 10 mg/kg, 5 Hours after carragheenin): 10.0%; Degree (%) of suppression of swelling ([4]; oral, 10 mg/kg, 3 Hours after carragheenin): 11.2%; Degree (%) of suppression of swelling ([4]; oral, 10 mg/kg, 5 Hours after carragheenin): 8.2%; reduction in the degree of swelling as compared to the control test group ([4]; oral, 10 mg/kg, at 3 hours and 5 hours from carragheenin injection): significant reduction in the degree of swelling; reduction in the degree of swelling as compared to the control test group ([4]; oral, 50 mg/kg, at 3 hours from carragheenin injection): significant reduction in the degree of swelling; Degree (%) of suppression of swelling ([4]; oral, 100 mg/kg, 3 Hours after carragheenin): 7.0%; Degree (%) of suppression of swelling ([4]; oral, 100 mg/kg, 5 Hours after carragheenin): 9.6%; reduction in the degree of swelling as compared to the control test group ([4]; oral, 100 mg/kg, at 5 hours from carragheenin injection): significant reduction in the degree of swelling |
| CCCCCC=CCC=CCC(CC1OC(=O)C1CCCCCC)OC(=O)C(CC(N)=O)NC(C)=O (stereo not drawn) [Esterastin, esterastin, reference compound] | – | – | – | 31.1 | 28.1 | – | 10.3 | -3.0 | – |
